Positions count from the first letter of the chain named. Numbers in names are those of the source. Where “and” joins values, the source holds several entries; their conditions need not be identical. Equal entries are not always repeated.
Columns and labels:
[1] = biological target: T1, atATC (Arabidopsis ATC aa 82–390) WT (Arabidopsis thaliana, UniProt P49077); test: Isothermal titration calorimetry (ITC), atATC WT; assay type: binding; settings: site 1
T1 construct: 2.6 kDa fusion tag (modified pET28a); made in house; host or cells: E. coli BLR(DE3)-pLysS
T1 sequence (P49077 82-390): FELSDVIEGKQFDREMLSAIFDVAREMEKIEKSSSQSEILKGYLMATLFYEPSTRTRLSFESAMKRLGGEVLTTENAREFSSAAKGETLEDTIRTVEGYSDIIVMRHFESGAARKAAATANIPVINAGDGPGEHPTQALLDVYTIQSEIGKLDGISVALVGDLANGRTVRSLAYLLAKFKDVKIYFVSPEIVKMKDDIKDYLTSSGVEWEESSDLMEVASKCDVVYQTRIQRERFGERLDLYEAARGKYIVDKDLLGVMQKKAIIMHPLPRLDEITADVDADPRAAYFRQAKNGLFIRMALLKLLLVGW
Experimental: (§1) Experiments were performed in an Auto-iTC200 calorimeter (MicroCal, Malvern-Panalytical) at 25 °C with a 0.2 ml reaction cell and 30–40 µM protein solution (in protomer units) in the cell. […] All solutions were in GF buffer and degassed and mixed in the cell by stirring at 750 rpm. Data analysis was performed with Origin 7 (OriginLab) using a general three-site cooperative and a non-cooperative binding model, restricted to one or two ligand binding sites when convenient[24],[62],[63]. Non-linear least-squares regression analysis was employed to estimate dissociation constants for the interaction of the different ligands with ATC.

atATC-F161A [2] = biological target: T2, atATC-F161A (Arabidopsis thaliana, UniProt P49077, F161A); test: biochemical; assay type: binding
T2 construct: 2.6 kDa fusion tag (modified pET28a); made in house; host or cells: E. coli BLR(DE3)-pLysS
T2 sequence (P49077 82-390 F161A): T1 sequence (P49077 82-390) with F80A
Experimental: as §1

atATC WT = biological target: T3, atATC WT (Arabidopsis thaliana, UniProt P49077); test: Colorimetric ATC activity assay, atATC WT; assay type: biochemical; settings: 10 mM Asp
T3 construct: 2.6 kDa fusion tag (modified pET28a); made in house; host or cells: E. coli BLR(DE3)-pLysS
T3 sequence (P49077 82-390): T1 sequence (P49077 82-390)
Experimental: (§2) Activity was assayed by a colorimetric method[64] adapted to a 96-well plate format. […] Reagent B is light sensitive and was stored at 4 °C in the dark. The color reagents were gently mixed and stored at 4 °C in the dark until added to the sample. Reaction tubes were closed, boiled at 95 °C for 15 min, and kept in the dark for 30 min before measuring the absorbance at 450 nm in a Tecan infinite m200 microplate reader (Tecan). […] Data analysis was done with GraphPad. […] Protein concentration in the assay was 0.3 µM (0.01 mg ml^−1) both for WT and F161A.

atATC-F161A [3] = biological target: T2, atATC-F161A; test: Colorimetric ATC activity assay, atATC F161A; assay type: biochemical; settings: for Activity F161A: 10 mM Asp
Experimental: as §2

Arabidopsis seedlings = test: Seedling assay in liquid culture with PALA (fresh weight, root length); assay type: in vivo, Arabidopsis thaliana; settings: for fresh weight compared to untreated seedlings / root length relative to untreated seedlings / root length, average: 7 days; for fresh weight compared to untreated seedlings: n = 3 (3 times 10 seedlings); for root length relative to untreated seedlings / root length, average: n = 30; for root length, average: untreated 2.68 ± 0.49 cm; for Freshweight, single replicates (10 seedlings): source data of Figure 3a; for Freshweight, average (10 seedlings): 0 mM PALA 0.1699 g
Experimental: For DNA isolation, tissue collection and phenotypic inspection, wild-type Col-0 and transgenic Arabidopsis thaliana (L.) Heynh. plants (ecotype Columbia) were used throughout. Plants were grown in standardized soil (ED73 Einheitserde, Humuswerke Patzer) soil under long day conditions (120 μmol quanta m^−2 s^−1 in a […] regime, temperature 22 °C, humidity 60%). Prior to germination, seeds were incubated for 24 h in the dark at 4 °C for imbibition. […] The liquid cultures were maintained on a shaker at 100 rpm under the same light and temperature conditions as soil-grown plants. Leaf extract of wild-type and mutants was prepared by homogenizing leaf material in extraction buffer (50 mM HEPES-KOH pH 7.2, 5 mM MgCl2, 2 mM phenylmethylsulfonyl fluoride (PMSF) on ice. The homogenous extract was centrifuged at 20,000g for 10 min at 4 °C. The supernatant was collected and stored on ice until use.

plant ATCs = test system: plant ATCs; parameters: method as in PMID 14479231, doi:10.1093/jxb/40.10.1121; settings: cited from earlier work
[4] = substrate: NC(=O)OP(=O)(O)O; test: purified protein, by the assay type; settings: other: WT, CP variable, 10 mM Asp, absence of UMP; pH 8.3
[5] = biological target: the molecule itself; test: SEC-MALS; 400 ul of purified protein at 1.4 mg/ml on Superdex 200 10/300 in GF buffer (20 mM Tris pH 7.0, 0.1 M NaCl, 2% glycerol, 0.2 mM TCEP), 0.5 ml/min; self-association: homotrimer
[6] = substrate: NC(=O)OP(=O)(O)O; test: Colorimetric ATC activity assay, atATC F161A; assay type: biochemical, Arabidopsis thaliana; settings: other: F161A, CP variable, 10 mM Asp; pH 8.3
Experimental: Activity was assayed by a colorimetric method[64] adapted to a 96-well plate format[24]. […] Reagent B is light sensitive and was stored at 4 °C in the dark. The color reagents were gently mixed and stored at 4 °C in the dark until added to the sample. Reaction tubes were closed, boiled at 95 °C for 15 min, and kept in the dark for 30 min before measuring the absorbance at 450 nm in a Tecan infinite m200 microplate reader (Tecan). […] Data analysis was done with GraphPad. In the absence of inhibitors, WT kinetics obey Michaelis-Menten equation v = [Vmax·X/K0.5 + X], where X is substrate concentration and K0.5 is the substrate concentration at which the initial rate (v) is one-half of the maximum velocity (Vmax)]. […] Protein concentration in the assay was 0.3 µM (0.01 mg ml^−1) both for WT and F161A.

[7] = biological target: the molecule itself; test: crystal structure; X-ray crystal structures of the trimer (with UMP, apo, with PALA, with PALA + CP, with CP; F161A with UMP or PALA); sitting-drop vapor diffusion at room temperature, PEG 3350 conditions, data at 100 K

O=C(O)C[C@H](NC(=O)CP(=O)(O)O)C(=O)O [PALA, N-(phosphonacetyl)-L-aspartate]
-TΔS Site 1 ([1]; ITC): -21.6 kcal/mol
ΔG Site 1 ([1]; ITC): -8.5 kcal/mol
ΔH Site 1 ([1]; ITC): 13.1 kcal/mol
Kd ([1]; KD Site 1, ITC, 25 °C): 590 nM and 600 nM
Kd (atATC-F161A [2]): 120 nM
N, number of binding sites per protein trimer according to the ligand binding model (atATC-F161A [2]; ITC, F161A): 1
fold higher affinity of F161A than WT (atATC-F161A [2]; ITC, F161A versus WT): 5 fold
-TΔS Site 1 (atATC-F161A [2]; ITC, F161A, site 1): -20.4 kcal/mol
ΔG Site 1 (atATC-F161A [2]; ITC, F161A, site 1): -9.4 kcal/mol
ΔH Site 1 (atATC-F161A [2]; ITC, F161A, site 1): 11.0 kcal/mol
Activity WT (atATC WT; 0.01 mM PALA, [CP] 0.16 mM): 17.11 nmol / min μg and 10.69 nmol / min μg and 14.77 nmol / min μg
Activity WT (atATC WT; 0.01 mM PALA, [CP] 0.31 mM): 20.84 nmol / min μg and 20.81 nmol / min μg and 18.28 nmol / min μg
Activity WT (atATC WT; 0.01 mM PALA, [CP] 0.63 mM): 27.62 nmol / min μg and 26.91 nmol / min μg and 26.59 nmol / min μg
Activity WT (atATC WT; 0.01 mM PALA, [CP] 1.25 mM): 40.50 nmol / min μg and 40.46 nmol / min μg and 40.29 nmol / min μg
Activity WT (atATC WT; 0.01 mM PALA, [CP] 2.50 mM): 50.62 nmol / min μg and 53.39 nmol / min μg and 49.84 nmol / min μg
Activity WT (atATC WT; 0.01 mM PALA, [CP] 5.00 mM): 66.15 nmol / min μg and 65.77 nmol / min μg and 55.96 nmol / min μg
Activity WT (atATC WT; 0.1 mM PALA, [CP] 0.31 mM): 4.77 nmol / min μg and 4.92 nmol / min μg and 5.38 nmol / min μg
Activity WT (atATC WT; 0.1 mM PALA, [CP] 0.63 mM): 10.55 nmol / min μg and 10.43 nmol / min μg and 10.56 nmol / min μg
Activity WT (atATC WT; 0.1 mM PALA, [CP] 1.25 mM): 19.60 nmol / min μg and 18.57 nmol / min μg and 27.14 nmol / min μg
Activity WT (atATC WT; 0.1 mM PALA, [CP] 2.50 mM): 27.12 nmol / min μg and 29.01 nmol / min μg and 31.29 nmol / min μg
Activity WT (atATC WT; 0.1 mM PALA, [CP] 5.00 mM): 33.74 nmol / min μg and 33.21 nmol / min μg
Activity F161A (atATC-F161A [3]; 0.01 mM PALA, [CP] 0.15 mM): 4.41 nmol / min μg and 6.29 nmol / min μg and 5.34 nmol / min μg
Activity F161A (atATC-F161A [3]; 0.01 mM PALA, [CP] 0.31 mM): 5.13 nmol / min μg and 6.44 nmol / min μg and 9.47 nmol / min μg
Activity F161A (atATC-F161A [3]; 0.01 mM PALA, [CP] 0.63 mM): 25.34 nmol / min μg and 31.98 nmol / min μg and 21.75 nmol / min μg
Activity F161A (atATC-F161A [3]; 0.01 mM PALA, [CP] 1.25 mM): 39.80 nmol / min μg and 37.97 nmol / min μg and 40.98 nmol / min μg
Activity F161A (atATC-F161A [3]; 0.01 mM PALA, [CP] 2.50 mM): 38.56 nmol / min μg and 36.28 nmol / min μg and 37.57 nmol / min μg
Activity F161A (atATC-F161A [3]; 0.1 mM PALA, [CP] 1.25 mM): 11.15 nmol / min μg and 10.75 nmol / min μg and 7.03 nmol / min μg
Activity F161A (atATC-F161A [3]; 0.1 mM PALA, [CP] 2.50 mM): 5.52 nmol / min μg and 9.09 nmol / min μg and 9.11 nmol / min μg
sensitivity of enzyme activity to PALA compared to WT (atATC-F161A [3]; F161A): more sensitive
fresh weight compared to untreated seedlings (Arabidopsis seedlings; 0.2 mM PALA): 59%
root length relative to untreated seedlings (Arabidopsis seedlings; 0.2 mM PALA): 36%
root length, average (Arabidopsis seedlings; 0.2 mM PALA): 0.96 ± 0.22 cm and 0.962 cm
Freshweight, single replicates (10 seedlings) (Arabidopsis seedlings; 0.2 mM PALA): 0.1006 g and 0.0950 g and 0.1032 g
Freshweight, average (10 seedlings) (Arabidopsis seedlings; 0.2 mM PALA): 0.0996 g
fresh weight compared to untreated seedlings (Arabidopsis seedlings; 0.4 mM PALA): 23%
root length relative to untreated seedlings (Arabidopsis seedlings; 0.4 mM PALA): 8%
root length, average (Arabidopsis seedlings; 0.4 mM PALA): 0.21 ± 0.09 cm and 0.213 cm
Freshweight, single replicates (10 seedlings) (Arabidopsis seedlings; 0.4 mM PALA): 0.0435 g and 0.0329 g and 0.0417 g
Freshweight, average (10 seedlings) (Arabidopsis seedlings; 0.4 mM PALA): 0.0394 g
chlorosis of seedlings (Arabidopsis seedlings; PALA-treated seedlings): Chlorosis was also apparent

O=c1ccn([C@@H]2O[C@H](COP(=O)(O)OP(=O)(O)O)[C@@H](O)[C@H]2O)c(=O)[nH]1 [UDP]
inhibition of plant ATCs (plant ATCs): not inhibitors

O=c1ccn([C@@H]2O[C@H](COP(=O)(O)OP(=O)(O)OP(=O)(O)O)[C@@H](O)[C@H]2O)c(=O)[nH]1 [UTP]
inhibition of plant ATCs (plant ATCs): not inhibitors

B1: Arabidopsis aspartate transcarbamoylase, construct spanning aa 82-390 (atATC) (enzyme, Arabidopsis thaliana, UniProt P49077 82-390, looked up)
chain: T1 sequence (P49077 82-390)
notes: Aspartate transcarbamoylase (ATC; pyrB; At3g20330) of Arabidopsis thaliana, aa 82-390 of the 390 aa precursor protein with an N-terminal chloroplast transit peptide; amplified from cDNA; No cleavage of the tag is described, and the text speaks of the size of purified atATC 'excluding the 2.6 kDa fusion tag', so the tag was probably kept; It is probably a His tag (Ni-sepharose purification); The …
K0.5 [4]: 0.46 ± 0.10 mM
stoichiometry N [5]: 3

B2: atATC mutant F161A (enzyme, Arabidopsis thaliana, UniProt P49077 82-390, looked up)
chain: T1 sequence (P49077 82-390) with F80A
notes: Aspartate transcarbamoylase (ATC; pyrB; At3g20330) of Arabidopsis thaliana, aa 82-390 of the 390 aa precursor protein, with F161 replaced by Ala; Made by site-directed mutagenesis of the atATC construct; same tag and purification as m1; also called atATC-F161A; source: E. coli BLR(DE3)-pLysS, purified (Ni-sepharose, size-exclusion chromatography on Superdex 75); not shown: fusion tag (2.6 kDa)
K0.5 [6]: 0.62 ± 0.13 mM
binding result [7]: binds

From paper PMC7878868, “Mechanisms of feedback inhibition and sequential firing of active sites in plant aspartate transcarbamoylase” (Nature Communications, 2021)
